According to patent US20140349945A1, “PEG-AMINO ACID-OLIGOPEPTIDE-IRINOTECAN DRUG CONJUGATES AND THE PHARMACEUTICAL COMPOSITIONS” (JENKEM TECHNOLOGY CO., LTD. (BEIJING), priority 2011, published 2014):
Marks after values point to notes of the source that are not given here.

Tests used:
[1] = test system: human colon cancer cells SW-620; assay: Inhibitory effect on transplanted tumor of human colon cancer cells SW-620 in nude mice; details: for RTV mean ± SD) / TV (mean ± SD) d 28 / number of animals with tumor regression: SW-620, d 28; for number of animals with tumor regression: 6 mice per group; for Weight At the beginning / Weight At last: SW-620 tumor-bearing nude mice; for Weight At the beginning: baseline; for Weight At last: end of experiment
Excerpt: (§1) BALB/cA nude mice (male, 5-6 weeks old, weighed 18±2 g) were provided by the Shanghai Institute of Materia Medica, Chinese Academy of Sciences. […] Animal numbers of each group: 12 mice in negative control group and 6 mice in treatment group.
Human […] tumor cell strains SW-620 were purchased from ATCC. 5×10^6 cells were subcutaneously inoculated in the right armpit of each nude mouse. The transplanted tumors were transferred in nude mice for two generations before utilization.
Vigorous tumor tissues were cut into pieces of about 1.5 mm3 and then subcutaneously inoculated to the right armpit nude mice under sterile conditions. The diameters of the subcutaneous transplanted tumors were measured using a vernier caliper. The animals were randomly grouped when the tumors grew to 100-200 mm3. […] After the administration, the animals were observed consecutively for one week. During the whole experiment, diameters of the transplanted tumors were measured and the animals were weighed two times a week. The tumor volume (TV) was calculated as follows: TV=½×a×b^2, wherein, a and b represented length and width respectively. According to the results of measurements, the relative tumor volumes (RTV) were calculated as follows: RTV=Vt/V0. Wherein, V0 were the volumes measured at administration after caging (i.e. d0), Vt were the tumor volumes of every measurements.

[2] = test system: human lung cancer cells A549; assay: Inhibitory effect on transplanted tumors of human lung cancer cells A549 in nude mice; details: for Weight At the beginning: A549 tumor-bearing nude mice, baseline
Excerpt: as §1
Human lung tumor cell strains A549 were purchased from ATCC. 5×10^6 cells were subcutaneously inoculated in the right armpit of each nude mouse. The transplanted tumors were transferred in nude mice for two generations before utilization.
(§2) Vigorous tumor tissues were cut into pieces of about 1.5 mm3 and then subcutaneously inoculated to the right armpit nude mice under sterile conditions. The diameters of the subcutaneous transplanted tumors were measured using a vernier caliper. The animals were randomly grouped when the tumors grew to 100-200 mm3.
(§3) After the administration, the animals were observed consecutively for one week. During the whole experiment, diameters of the transplanted tumors were measured and the animals were weighed two times a week. The tumor volume (TV) was calculated as follows: TV=½×a×b^2, wherein, a and b represented length and width respectively. According to the results of measurements, the relative tumor volumes (RTV) were calculated as follows: RTV=Vt/V0. Wherein, V0 were the volumes measured at administration after caging (i.e. d0), Vt were the tumor volumes of every measurements.

[3] = test system: human colon cancer cells HT-29; assay: Inhibitory effect on transplanted tumors of human colon cancer cells HT-29 in nude mice; details: for Weight At the beginning / Weight At lats: HT-29 tumor-bearing nude mice; for Weight At the beginning: baseline; for Weight At lats: end of experiment
Excerpt: as §1
Human colon tumor cell strains HT-29 were purchased from ATCC. 5×10^6 cells were subcutaneously inoculated in the right armpit of each nude mouse. The transplanted tumors were transferred in nude mice for two generations before utilization.
as §2, with “mm^3” for “mm3”, “mm^3.” for “mm3.”
as §3

[4] = test system: human colon cancer cells HCT-116; assay: Inhibitory effect on transplanted tumors of human colon cancer cells HCT-116 in nude mice; details: for Weight At the beginning / Weight At lats: HCT-116 tumor-bearing nude mice; for Weight At the beginning: baseline; for Weight At lats: end of experiment
Excerpt: BALB/cA nude mice (male, 4-6 weeks old, weighed 19±2 g) were provided by the Shanghai Institute of Materia Medica, Chinese Academy of Sciences. […] Animal numbers of each group: 12 mice in negative control group and 6 mice in treatment group.
5×10^6 cells were subcutaneously inoculated in the right armpit of each nude mouse. The transplanted tumors were transferred in nude mice for two generations before utilization.
as §2, §3

[5] = test system: human ovarian cancer cells SKOV-3; assay: Inhibitory effect on transplanted tumor of human ovarian cancer cells SKOV-3 in nude mice; details: for TV (mean ± SD) d 28 / number of animals with tumor regression: d 28; for number of animals with tumor regression: 6 mice per group; for Weight At the beginning / Weight At lats: SKOV-3 tumor-bearing nude mice; for Weight At the beginning: baseline; for Weight At lats: end of experiment
Excerpt: as §1
Human […] tumor cell strains SKOV-3 were purchased from ATCC. 5×10^6 cells were subcutaneously inoculated in the right armpit of each nude mouse. The transplanted tumors were transferred in nude mice for two generations before utilization.
as §2, §3

Question: Which “RTV mean ± SD)” value ([1]; 15 mg/kg, iv q3w × 3w) does the source give for `CCc1c2c(nc3ccc(OC(=O)N4CCC(N5CCCCC5)CC4)cc13)-c1cc3c(c(=O)n1C2)COC(=O)[C@]3(O)CC` [CPT-11, Irinotecan] here?
Answer: The value was 0.02 ± 0.02**^,.

Question: What about the “TV (mean ± SD) d 28” value ([1]; 15 mg/kg, iv q3w × 3w) of the same compound?
Answer: Its value is 2.09 ± 1.51 mm^3.

Question: What about the “number of animals with tumor regression” value ([1]; 15 mg/kg, iv q3w × 3w) of the same compound?
Answer: Its value is 0.

Question: And the “Weight At the beginning” value ([1]; 15 mg/kg, iv q3w × 3w)?
Answer: The value was 19.7 g.

Question: And the “Weight At last” value ([1]; 15 mg/kg, iv q3w × 3w)?
Answer: The value was 24.2 g.

Question: And the “RTV mean ± SD)” value ([1]; 45 mg/kg, iv qw × 3w)?
Answer: Its value is 6.60 ± 1.56.

Question: And the “TV (mean ± SD) d 28” value ([1]; 45 mg/kg, iv qw × 3w)?
Answer: Its value is 877 ± 324 mm^3.

Question: What about the “number of animals with tumor regression” value ([1]; 45 mg/kg, iv qw × 3w) of the same compound?
Answer: The value was 0.

Question: And the “Weight At the beginning” value ([1]; 45 mg/kg, iv qw × 3w)?
Answer: Its value is 18.8 g.

Question: What about the “Weight At last” value ([1]; 45 mg/kg, iv qw × 3w) of the same compound?
Answer: Its value is 21.8 g.

Question: What about the “TV (mean ± SD) d 28” value ([2]; 15 mg/kg, iv q3w × 3w, A549, d 28) of the same compound?
Answer: Its value is 831 ± 305 mm^3.

Question: What about the “Weight At the beginning” value ([2]; 15 mg/kg, iv q3w × 3w) of the same compound?
Answer: Its value is 18.1 g.

Question: And the “RTV mean ± SD)” value ([2]; 45 mg/kg, iv qw × 3w, A549, d 28)?
Answer: The value was 9.87 ± 4.87 ^.

Question: What about the “Weight At the beginning” value ([2]; 45 mg/kg, iv qw × 3w) of the same compound?
Answer: The value was 18.4 g.

Question: What about the “Weight At the beginning” value ([3]; 15 mg/kg, iv q3w × 3w) of the same compound?
Answer: The value was 18.2 g.

Question: What about the “Weight At lats” value ([3]; 15 mg/kg, iv q3w × 3w) of the same compound?
Answer: The value was 16.0 g.

Question: What about the “Weight At the beginning” value ([3]; 45 mg/kg, iv qw × 3w) of the same compound?
Answer: Its value is 18.6 g.

Question: What about the “Weight At lats” value ([3]; 45 mg/kg, iv qw × 3w) of the same compound?
Answer: Its value is 16.2 g.

Question: What about the “body weight change during the whole experiment (in words)” value ([3]; two groups treated with different doses (15 and 45 mg/kg), HT-29) of the same compound?
Answer: The value was “underwent weight loss”.

Question: What about the “TV (mean ± SD) d 28” value ([4]; 15 mg/kg, iv q3w × 3w, HCT-116) of the same compound?
Answer: The value was 322 ± 37 mm^3.

Question: What about the “Weight At the beginning” value ([4]; 15 mg/kg, iv q3w × 3w) of the same compound?
Answer: The value was 19.1 g.

Question: And the “Weight At lats” value ([4]; 15 mg/kg, iv q3w × 3w)?
Answer: Its value is 16.6 g.

Question: And the “body weight change during the whole experiment (in words)” value ([4]; 45 mg/kg group, compared with solvent control group, HCT-116)?
Answer: The value was “slightly higher weight loss”.

Question: What about the “TV (mean ± SD) d 28” value ([4]; 45 mg/kg, iv qw × 3w, HCT-116) of the same compound?
Answer: Its value is 512 ± 99 mm^3.

Question: What about the “Weight At the beginning” value ([4]; 45 mg/kg, iv qw × 3w) of the same compound?
Answer: Its value is 19.2 g.

Question: What about the “Weight At lats” value ([4]; 45 mg/kg, iv qw × 3w) of the same compound?
Answer: Its value is 15.1 g.

Question: What about the “TV (mean ± SD) d 28” value ([5]; 15 mg/kg, iv q3w × 3w, SKOV-3) of the same compound?
Answer: The value was 924 ± 443 mm^3.

Question: And the “number of animals with tumor regression” value ([5]; 15 mg/kg, iv q3w × 3w, SKOV-3)?
Answer: The value was 0.

Question: And the “Weight At the beginning” value ([5]; 15 mg/kg, iv q3w × 3w)?
Answer: The value was 18.9 g.

Question: And the “Weight At lats” value ([5]; 15 mg/kg, iv q3w × 3w)?
Answer: Its value is 18.0 g.

Question: What about the “TV (mean ± SD) d 28” value ([5]; 45 mg/kg, iv qw × 3w, SKOV-3) of the same compound?
Answer: Its value is 1753 ± 878 mm^3.

Question: What about the “number of animals with tumor regression” value ([5]; 45 mg/kg, iv qw × 3w, SKOV-3) of the same compound?
Answer: Its value is 0.

Question: What about the “Weight At the beginning” value ([5]; 45 mg/kg, iv qw × 3w) of the same compound?
Answer: Its value is 19.7 g.

Question: What about the “Weight At lats” value ([5]; 45 mg/kg, iv qw × 3w) of the same compound?
Answer: Its value is 18.4 g.

Question: And the “body weight change during the whole experiment (in words)” value ([5]; CPT-11 both dose groups, CPT-1 45 mg/kg, SKOV-3)?
Answer: The value was “slight weight loss”.
